Data on 8 molecules can be found in article PMC8157280 (Pharmaceutics, 2021).

In series [1] the test system is Sprague-Dawley rats. As to the kind of experiment: Fatality after GHB with or without ketamine. The following applies: GHB 400 mg/kg i.v. bolus + 208 mg/kg/h infusion and/or ketamine 6 mg/kg bolus + 1 mg/kg/min infusion; n = 8.
The test system of series [2] is Sprague-Dawley rats. As to the kind of experiment: GHB-induced respiratory depression, whole-body plethysmography. As to conditions: for Respiratory depression (in words): ketamine alone, or naloxone 2 mg/kg i.v. with or without SCH50911 10 mg/kg given 5 min after GHB-ketamine; for Breathing frequency (in words) / Minute volume (in words) / Tidal volume (in words): GHB 600 mg/kg i.v. alone or with ketamine 6 mg/kg + 1 mg/kg/min, treatments 5 min after GHB-ketamine, compared to GHB-ketamine.

In the next series the test system is RBE4 cells. Kind of series: [3H]-GHB uptake in RBE4 cells. The class given is cell-based, rat. The following applies: for GHB uptake compared with GHB alone / GHB uptake in the presence of staurosporine: 10 mM GHB; for GHB uptake in the presence of staurosporine: 2 h pre-incubation with ketamine 40 µM or PMA 100 nM plus staurosporine. The procedure:
The immortalized rat brain capillary endothelial cell line (RBE4) was kindly provided by Professor P. Couraud (Institut Cochin, Paris, France). RBE4 cells (passages 39–44) were used in all studies, as described previously. Briefly, cells were grown at 37 °C with 5% CO2 on Type-I collagen-coated flasks, and media was changed every 2–3 days. The culture medium was 1:1 α-minimum essentials medium/Hams F10 nutrient mixture supplemented with L-glutamine (2.0 mM), geneticin (300 μg/mL), human recombinant fibroblast growth factor (1 ng/mL), gentamicin (50 μg/mL), and 10% v/v fetal bovine serum (FBS). Cells were passaged using 0.25% trypsin/EDTA and seeded on individual 35 × 10 mm collagen-coated wells for uptake studies which were performed 7 days post-confluence (the time needed for formation of tight junctions).
In addition, the effect of various pre-incubation times with ketamine (0.5, 2, 4, 8 and 24 h) was also studied in these cells. […] After cell lysis, NaOH was neutralized with 0.5 mL 1.0 N HCl.

Series [3] concerns Sprague-Dawley rats. Kind of series: Sedative effect (sleep time, righting reflex). As to conditions: GHB 400 mg/kg i.v. + ketamine 6 or 20 mg/kg i.v.; compared to GHB or ketamine alone.
A short description of series [4]: GHB toxicokinetics (plasma and urine, noncompartmental analysis). As to conditions: for Ketamine plasma concentration in the study: ketamine 6 mg/kg i.v. bolus + 1 mg/kg/min infusion, maintained up to 1 h.
The conditions of series [5]: cited from earlier work.
Series [6] can be described thus: GHB blood-brain partitioning at steady state. The following applies: GHB 400 mg/kg i.v. bolus + 208 mg/kg/h infusion alone; steady state 4 h.
On the set-up of series [7]: method as in PMID 12667908. The following applies: GHB 400 mg/kg i.v. alone; cited from earlier work.
[8] abbreviates: GHB 600 mg/kg i.v. bolus, ketamine 6 mg/kg i.v. bolus + 1 mg/kg/min infusion, L-lactate 66 mg/kg + 302.5 mg/kg/h, AR-C155858 1 mg/kg, SCH50911 10 mg/kg or naloxone 2 mg/kg i.v. 5 min after GHB-ketamine.

SMILES strings stand for the structures. Where a name gives a salt, the structure may show the parent alone.

Turning to `CNC1(c2ccccc2Cl)CCCCC1=O` (racemic) [ketamine, (±) Ketamine Hydrochloride], in the series with Sprague-Dawley rats [1], the Fatality entry is reported as “No death was observed”. In the series with Sprague-Dawley rats [2], the “Respiratory depression (in words)” value is “did not result in any significant respiratory depression”. In addition, the “GHB uptake compared with GHB alone” value with RBE4 cells (15 s, 2 h pre-incubation with ketamine 5, 15 or 40 µM at 37 °C) is “significantly increased”; in the series with RBE4 cells (15 s, ketamine 5, 15, 40 µM without pre-incubation), “no significant change in GHB uptake”; in the series with RBE4 cells (0.5, 2 and 4 h pre-incubation with 40 µM ketamine), “significant increases in GHB uptake”; in the series on RBE4 cells (longer pre-incubation times (8 and 24 h) with 40 µM ketamine), “no significant changes”. In the series with RBE4 cells, the “GHB uptake in the presence of staurosporine” value is “no increase in GHB uptake”. Besides, the “Effect of co-administration on GHB sleep time” value with Sprague-Dawley rats [3] was “significant increase in sleep time”. The “Steady-state concentration of ketamine with GHB compared to ketamine alone” value in series [4] (GHB 600 mg/kg i.v., ketamine 6 mg/kg bolus + 1 mg/kg/min for 60 min) is listed as “no significant difference”. Moreover, the entries for the “Ketamine plasma concentration in the study” value in series [4] and in series [4] (listed as Ketamine) were ~ 7 µg/mL and 7 µg/mL, respectively. Besides, the “Ketamine plasma concentrations associated with fatalities” value in series [5] was 1.8 to 27.4 µg/mL.
Take `Cc1n[nH]c(C)c1Cc1sc2c(c1C(=O)N1C[C@H](O)CO1)c(=O)n(C)c(=O)n2CC(C)C` [AR-C155858, 6-[(3,5-Dimethyl-1H-pyrazol-4-yl)methyl]-5-[[(4S)-4-hydroxy-2-isoxazolidinyl]carbonyl]-3-methyl-1-(2-methylpropyl)thieno [2,3-d]pyrimidine-2,4(1H,3H)-dione]: in the series with Sprague-Dawley rats [2], the “Breathing frequency (in words)” value was “significant and rapid improvement in breathing frequency”; the “Minute volume (in words)” value is “completely reversed the decline in minute volume”.
As for `O=C(O)CCCO` [GHB, γ-hydroxybutyric acid], the Fatality entry with Sprague-Dawley rats [1] is recorded as “No death was observed”. For the same molecule, the “Cbrain GHB” value in series [6] amounted to 0.21 ± 0.03 mg/g. In the series with Sprague-Dawley rats [2], the “Breathing frequency (in words)” value was “decrease in breathing frequency”, the “Minute volume (in words)” value is “remaining unchanged” and the “Tidal volume (in words)” value was “compensatory increase in tidal volume”. For the same molecule, in the series with Sprague-Dawley rats [2] (setting [8]), the “Frequency AUEC” value is on record as 5540 ± 1000 breaths, the “Frequency Emax” value stood at 31 ± 5 breaths/min and the “Frequency Td” value stood at 153 ± 12.5 min. In series [7], the “Cbrain (brain GHB concentration at RRR)” value is on record as 71.7 ± 9.89 µg/g and the “Cplasma (plasma GHB concentration at RRR)” value was 379 ± 86.2 µg/mL.
Take `C[C@H](O)C(=O)[O-].[Na+]` [L-lactate, sodium L-lactate]: in the series with Sprague-Dawley rats [2], the “Breathing frequency (in words)” value was “significant improvement in breathing frequency and minute volume”; the “Minute volume (in words)” value is “significant improvement in breathing frequency and minute volume”; the “Tidal volume (in words)” value is “no change in tidal volume”.
Regarding `C=CCN1CC[C@]23c4c5ccc(O)c4O[C@H]2C(=O)CC[C@@]3(O)[C@H]1C5` [Naloxone, naloxone hydrochloride dihydrate], the “Respiratory depression (in words)” value in the series on Sprague-Dawley rats [2] was “no effects”.
For the molecule `CCCCCCCCCCCCCC(=O)O[C@@H]1[C@@H](C)[C@@]2(O)[C@@H](C=C(CO)C[C@]3(O)C(=O)C(C)=C[C@@H]23)[C@@H]2C(C)(C)[C@]12OC(C)=O` [PMA, phorbol 12-myristate 13-acetate], in the series with RBE4 cells (2 h pre-incubation with PMA 100 nM), the “GHB uptake compared with GHB alone” value is listed as “significant increase in GHB uptake”. For the same molecule, the “GHB uptake in the presence of staurosporine” value with RBE4 cells is “no increase in GHB uptake”.
`CC1(C)CO[C@@H](CC(=O)O)CN1` [SCH50911, (2S)-(+)-5,5-Dimethyl-2-morpholineacetic acid]: in the series on Sprague-Dawley rats [2], the “Breathing frequency (in words)” value was “significant improvement in breathing frequency and minute volume”; the “Minute volume (in words)” value was “significant improvement in breathing frequency and minute volume”; the “Tidal volume (in words)” value is recorded as “compensatory increase in tidal volume was also absent”.
Take `CN[C@@H]1C[C@H]2O[C@@](C)([C@@H]1OC)n1c3ccccc3c3c4c(c5c6ccccc6n2c5c31)C(=O)NC4` [staurosporine]: the “Effect on the increase in GHB uptake by PMA and ketamine” value with RBE4 cells (RBE4 cells, co-incubation during 2 h pre-incubation) was “significantly inhibited”.
